Measurements from PubChem BioAssay AID308 (DTP/NCI, 2004).
“And” between values parts separate entries of the source, which are not always exact repeats. Identical values can stand only once. Toxic doses and inconclusive results are not listed. Rule for the calls: active = survival T/C of 150% or more; inactive = T/C below 125% in these data.

System: BDF1 mice, L1210 6-MP/6-TG resistant leukemia ip, survival T/C
Assay: NCI In Vivo Anticancer Drug Screen. Data for tumor model L1210 Leukemia resistant to 6-MP and 6-Thioguanine; NSC 755, NSC 752 (intraperitoneal) in B6D2F1 (BDF1) mice
Conditions: endpoint: mean survival time, higher = longer survival
Protocol: The antitumor activity of compounds was measured in mice bearing transplantable tumors. Survival or tumor size were measured and the results are expressed as the measurement made in the treated group (T) divided by the measurement made in the vehicle treated control group (C). The tumor model used in this assay is L1210 Leukemia resistant to 6-MP and 6-Thioguanine; NSC 755, NSC 752 (intraperitoneal) in B6D2F1 (BDF1) mice

[1] = dose: 12.5 mg/kg/injection, schedule: Q01DX015 (ip), vehicle: carboxymethylcellulose (CMC)
[2] = dose: 25.0 mg/kg/injection, schedule: Q01DX015 (ip), vehicle: carboxymethylcellulose (CMC)
[3] = dose: 50.0 mg/kg/injection, schedule: Q01DX015 (ip), vehicle: carboxymethylcellulose (CMC)

Measured: T/C

C[C@H](N)C(=O)N[C@@H]1[C@H]2C(=C(O)C[C@@H](O)[C@@H]2O)C(=O)O[C@@H]1C
inactive: dose: 2000.0 mg/kg/injection, schedule: Q01DX Z (ip), vehicle: saline 100 % of control
active: dose: 330.0 mg/kg/injection, schedule: Q01DX015 (ip), vehicle: carboxymethylcellulose (CMC) 152 % of control | dose: 500.0 mg/kg/injection, schedule: Q01DX Z (ip), vehicle: saline 189 % of control | dose: 750.0 mg/kg/injection, schedule: Q01DX Z (ip), vehicle: saline 185 % of control

CC(C)n1cnc2c(=S)nc[nH]c21
inactive: dose: 2.5 mg/kg/injection, schedule: Q01DX015 (ip), vehicle: carboxymethylcellulose (CMC) 96 % of control | dose: 5.0 mg/kg/injection, schedule: Q01DX015 (ip), vehicle: carboxymethylcellulose (CMC) 96 % of control | dose: 10.0 mg/kg/injection, schedule: Q01DX015 (ip), vehicle: carboxymethylcellulose (CMC) 96 % of control | dose: 20.0 mg/kg/injection, schedule: Q01DX015 (ip), vehicle: carboxymethylcellulose (CMC) 94 % of control | dose: 42.0 mg/kg/injection, schedule: Q01DX015 (ip), vehicle: carboxymethylcellulose (CMC) 86 % of control and 100 % of control | dose: 63.0 mg/kg/injection, schedule: Q01DX015 (ip), vehicle: carboxymethylcellulose (CMC) 86 % of control | dose: 95.0 mg/kg/injection, schedule: Q01DX015 (ip), vehicle: carboxymethylcellulose (CMC) 86 % of control

CCCn1cnc2c(=S)nc[nH]c21
inactive: [1] 97 % of control | [2] 95 % of control | [3] 101 % of control | dose: 100.0 mg/kg/injection, schedule: Q01DX015 (ip), vehicle: carboxymethylcellulose (CMC) 96 % of control

O=C(O)c1cc[c]([Hg][S]c2ncnc3nc[nH]c23)cc1
inactive: [1] 95 % of control | [2] 87 % of control

O=C(O)CCCc1ccc(N(CCCl)CCCl)cc1
inactive: dose: 5.0 mg/kg/injection, schedule: Q01DX Z (ip), vehicle: carboxymethylcellulose (CMC) 117 % of control | dose: 10.0 mg/kg/injection, schedule: Q01DX Z (ip), vehicle: carboxymethylcellulose (CMC) 114 % of control | dose: 20.0 mg/kg/injection, schedule: Q01DX Z (ip), vehicle: carboxymethylcellulose (CMC) 115 % of control | dose: 30.0 mg/kg/injection, schedule: Q01DX Z (ip), vehicle: carboxymethylcellulose (CMC) 89 % of control

CN(C)[C@@H]1C(=O)C(C(=O)NCc2nc3[nH]cnc(=S)c3[nH]2)=C(O)[C@@]2(O)C(=O)C3=C(O)c4c(O)cccc4[C@@](C)(O)[C@H]3C[C@@H]12
inactive: dose: 50.0 mg/kg/injection, schedule: Q01DX009 (ip), vehicle: carboxymethylcellulose (CMC) 105 % of control | dose: 100.0 mg/kg/injection, schedule: Q01DX009 (ip), vehicle: carboxymethylcellulose (CMC) 104 % of control | dose: 400.0 mg/kg/injection, schedule: Q01DX009 (ip), vehicle: carboxymethylcellulose (CMC) 93 % of control

OCn1cnc2c(SC3CCCC3)ncnc21
inactive: dose: 12.5 mg/kg/injection, schedule: Q01DX009 (ip), vehicle: other 91 % of control | dose: 50.0 mg/kg/injection, schedule: Q01DX009 (ip), vehicle: other 89 % of control and 93 % of control

CN(C)c1nc(N(C)C)nc(N(C)C)n1
inactive: dose: 4.3 mg/kg/injection, schedule: Q01DX Z (ip), vehicle: other 101 % of control | dose: 8.7 mg/kg/injection, schedule: Q01DX Z (ip), vehicle: other 111 % of control | dose: 17.5 mg/kg/injection, schedule: Q01DX Z (ip), vehicle: other 109 % of control | dose: 35.0 mg/kg/injection, schedule: Q01DX Z (ip), vehicle: other 111 % of control | dose: 50.0 mg/kg/injection, schedule: Q01DX Z (ip), vehicle: other 110 % of control | dose: 100.0 mg/kg/injection, schedule: Q01DX Z (ip), vehicle: other 98 % of control

CN(C)/N=N/c1nc[nH]c1C(N)=O
inactive: [1] 104 % of control | [2] 107 % of control | [3] 112 % of control | dose: 200.0 mg/kg/injection, schedule: Q01DX015 (ip), vehicle: carboxymethylcellulose (CMC) 115 % of control

CC(=O)OCC1OC(n2cnc3c(=S)nc[nH]c32)C(OC(C)=O)C1OC(C)=O (stereo not given)
inactive: dose: 25.0 mg/kg/injection, schedule: Q01DX Z (ip), vehicle: carboxymethylcellulose (CMC) 104 % of control | dose: 50.0 mg/kg/injection, schedule: Q01DX Z (ip), vehicle: carboxymethylcellulose (CMC) 111 % of control | dose: 100.0 mg/kg/injection, schedule: Q01DX Z (ip), vehicle: carboxymethylcellulose (CMC) 108 % of control | dose: 200.0 mg/kg/injection, schedule: Q01DX Z (ip), vehicle: carboxymethylcellulose (CMC) 98 % of control
